Activity calls are given as the source filed them.
How the values were obtained:
Estrogen receptor = target: T1, Estrogen receptor (Homo sapiens, UniProt P03372);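 further: potency for inhibiting coactivator peptide recruitment to the receptor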
T1 sequence (P03372 whole entry): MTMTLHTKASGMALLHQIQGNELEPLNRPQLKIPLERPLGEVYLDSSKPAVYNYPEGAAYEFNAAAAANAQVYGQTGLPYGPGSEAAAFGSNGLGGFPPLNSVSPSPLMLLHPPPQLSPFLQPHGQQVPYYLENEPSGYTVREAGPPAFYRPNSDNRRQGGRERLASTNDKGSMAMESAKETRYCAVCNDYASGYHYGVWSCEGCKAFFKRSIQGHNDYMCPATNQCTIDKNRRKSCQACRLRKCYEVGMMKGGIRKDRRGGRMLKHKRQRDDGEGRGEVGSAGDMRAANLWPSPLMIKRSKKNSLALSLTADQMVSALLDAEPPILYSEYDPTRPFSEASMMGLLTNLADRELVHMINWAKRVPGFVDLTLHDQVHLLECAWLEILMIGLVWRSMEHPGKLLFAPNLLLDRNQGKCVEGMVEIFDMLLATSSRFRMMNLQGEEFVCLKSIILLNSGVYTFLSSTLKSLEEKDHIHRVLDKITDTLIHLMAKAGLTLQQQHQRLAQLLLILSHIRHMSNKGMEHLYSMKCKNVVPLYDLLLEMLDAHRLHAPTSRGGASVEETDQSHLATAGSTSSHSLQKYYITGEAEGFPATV

[1] = target: T2, DNA repair protein RAD52 homolog (Homo sapiens, UniProt P43351); type: functional, biochemical
T2 sequence (P43351 whole entry): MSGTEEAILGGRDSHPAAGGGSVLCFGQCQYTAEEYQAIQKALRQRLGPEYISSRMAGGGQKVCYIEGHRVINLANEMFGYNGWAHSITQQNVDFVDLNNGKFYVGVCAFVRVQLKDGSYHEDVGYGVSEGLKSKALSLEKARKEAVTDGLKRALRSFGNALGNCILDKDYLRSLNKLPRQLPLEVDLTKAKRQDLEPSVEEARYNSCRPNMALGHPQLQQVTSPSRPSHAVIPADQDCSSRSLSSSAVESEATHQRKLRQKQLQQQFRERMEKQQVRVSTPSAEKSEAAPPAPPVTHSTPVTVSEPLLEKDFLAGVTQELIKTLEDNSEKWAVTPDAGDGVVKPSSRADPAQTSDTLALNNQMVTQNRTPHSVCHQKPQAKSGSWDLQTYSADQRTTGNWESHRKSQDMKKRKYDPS

Prothrombin = Prothrombin (Homo sapiens, UniProt P00734); experiment: Thrombin 1536 HTS Dose Response Confirmation. [Related pubchem assays: 1046 (Thrombin 1536 HTS; hits were confirmed in this assay)]; type: functional
[2] = target: T3, Corticotropin-releasing factor receptor 2/Corticotropin-releasing factor-binding protein (Homo sapiens, UniProt P24387+Q13324); experiment: activators of CRF receptor 2 with binding protein – uHTS hits, confirmation (AID 602473); type: functional; conditions: read-out: EC50_Mean
T3 sequence (Q13324 whole entry): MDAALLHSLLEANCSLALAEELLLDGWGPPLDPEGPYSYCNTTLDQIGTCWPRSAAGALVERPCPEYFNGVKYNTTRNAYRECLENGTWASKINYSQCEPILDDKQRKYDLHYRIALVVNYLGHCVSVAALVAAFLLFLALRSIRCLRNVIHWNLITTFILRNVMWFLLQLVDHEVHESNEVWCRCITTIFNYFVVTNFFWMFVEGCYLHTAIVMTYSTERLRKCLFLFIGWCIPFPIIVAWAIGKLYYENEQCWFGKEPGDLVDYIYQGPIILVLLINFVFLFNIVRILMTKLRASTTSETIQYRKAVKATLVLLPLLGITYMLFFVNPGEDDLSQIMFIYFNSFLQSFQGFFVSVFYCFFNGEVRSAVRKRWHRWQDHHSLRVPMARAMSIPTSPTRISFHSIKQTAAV
T3 sequence (P24387 whole entry): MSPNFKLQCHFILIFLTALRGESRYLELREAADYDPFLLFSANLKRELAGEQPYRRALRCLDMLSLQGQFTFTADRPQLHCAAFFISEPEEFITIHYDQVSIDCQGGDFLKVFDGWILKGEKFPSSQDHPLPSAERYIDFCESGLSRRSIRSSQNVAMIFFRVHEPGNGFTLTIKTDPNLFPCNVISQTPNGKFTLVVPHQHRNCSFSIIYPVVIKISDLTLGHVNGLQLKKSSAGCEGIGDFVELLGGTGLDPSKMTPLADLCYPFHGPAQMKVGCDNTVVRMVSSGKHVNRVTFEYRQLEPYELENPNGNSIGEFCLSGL

Fatty acid synthase [3] = target: T4, Fatty acid synthase (Homo sapiens, UniProt P49327); experiment: FAS thioesterase domain inhibitors, dose response, biochemical, endpoint fluorescence intensity, uHTS hits (AID 624327); type: functional;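 further: fluorescence from hydrolysis of an O-methyl fluorescein acyl ester substrate by the enzyme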
T4 sequence (P49327 whole entry, the tested form may be a part): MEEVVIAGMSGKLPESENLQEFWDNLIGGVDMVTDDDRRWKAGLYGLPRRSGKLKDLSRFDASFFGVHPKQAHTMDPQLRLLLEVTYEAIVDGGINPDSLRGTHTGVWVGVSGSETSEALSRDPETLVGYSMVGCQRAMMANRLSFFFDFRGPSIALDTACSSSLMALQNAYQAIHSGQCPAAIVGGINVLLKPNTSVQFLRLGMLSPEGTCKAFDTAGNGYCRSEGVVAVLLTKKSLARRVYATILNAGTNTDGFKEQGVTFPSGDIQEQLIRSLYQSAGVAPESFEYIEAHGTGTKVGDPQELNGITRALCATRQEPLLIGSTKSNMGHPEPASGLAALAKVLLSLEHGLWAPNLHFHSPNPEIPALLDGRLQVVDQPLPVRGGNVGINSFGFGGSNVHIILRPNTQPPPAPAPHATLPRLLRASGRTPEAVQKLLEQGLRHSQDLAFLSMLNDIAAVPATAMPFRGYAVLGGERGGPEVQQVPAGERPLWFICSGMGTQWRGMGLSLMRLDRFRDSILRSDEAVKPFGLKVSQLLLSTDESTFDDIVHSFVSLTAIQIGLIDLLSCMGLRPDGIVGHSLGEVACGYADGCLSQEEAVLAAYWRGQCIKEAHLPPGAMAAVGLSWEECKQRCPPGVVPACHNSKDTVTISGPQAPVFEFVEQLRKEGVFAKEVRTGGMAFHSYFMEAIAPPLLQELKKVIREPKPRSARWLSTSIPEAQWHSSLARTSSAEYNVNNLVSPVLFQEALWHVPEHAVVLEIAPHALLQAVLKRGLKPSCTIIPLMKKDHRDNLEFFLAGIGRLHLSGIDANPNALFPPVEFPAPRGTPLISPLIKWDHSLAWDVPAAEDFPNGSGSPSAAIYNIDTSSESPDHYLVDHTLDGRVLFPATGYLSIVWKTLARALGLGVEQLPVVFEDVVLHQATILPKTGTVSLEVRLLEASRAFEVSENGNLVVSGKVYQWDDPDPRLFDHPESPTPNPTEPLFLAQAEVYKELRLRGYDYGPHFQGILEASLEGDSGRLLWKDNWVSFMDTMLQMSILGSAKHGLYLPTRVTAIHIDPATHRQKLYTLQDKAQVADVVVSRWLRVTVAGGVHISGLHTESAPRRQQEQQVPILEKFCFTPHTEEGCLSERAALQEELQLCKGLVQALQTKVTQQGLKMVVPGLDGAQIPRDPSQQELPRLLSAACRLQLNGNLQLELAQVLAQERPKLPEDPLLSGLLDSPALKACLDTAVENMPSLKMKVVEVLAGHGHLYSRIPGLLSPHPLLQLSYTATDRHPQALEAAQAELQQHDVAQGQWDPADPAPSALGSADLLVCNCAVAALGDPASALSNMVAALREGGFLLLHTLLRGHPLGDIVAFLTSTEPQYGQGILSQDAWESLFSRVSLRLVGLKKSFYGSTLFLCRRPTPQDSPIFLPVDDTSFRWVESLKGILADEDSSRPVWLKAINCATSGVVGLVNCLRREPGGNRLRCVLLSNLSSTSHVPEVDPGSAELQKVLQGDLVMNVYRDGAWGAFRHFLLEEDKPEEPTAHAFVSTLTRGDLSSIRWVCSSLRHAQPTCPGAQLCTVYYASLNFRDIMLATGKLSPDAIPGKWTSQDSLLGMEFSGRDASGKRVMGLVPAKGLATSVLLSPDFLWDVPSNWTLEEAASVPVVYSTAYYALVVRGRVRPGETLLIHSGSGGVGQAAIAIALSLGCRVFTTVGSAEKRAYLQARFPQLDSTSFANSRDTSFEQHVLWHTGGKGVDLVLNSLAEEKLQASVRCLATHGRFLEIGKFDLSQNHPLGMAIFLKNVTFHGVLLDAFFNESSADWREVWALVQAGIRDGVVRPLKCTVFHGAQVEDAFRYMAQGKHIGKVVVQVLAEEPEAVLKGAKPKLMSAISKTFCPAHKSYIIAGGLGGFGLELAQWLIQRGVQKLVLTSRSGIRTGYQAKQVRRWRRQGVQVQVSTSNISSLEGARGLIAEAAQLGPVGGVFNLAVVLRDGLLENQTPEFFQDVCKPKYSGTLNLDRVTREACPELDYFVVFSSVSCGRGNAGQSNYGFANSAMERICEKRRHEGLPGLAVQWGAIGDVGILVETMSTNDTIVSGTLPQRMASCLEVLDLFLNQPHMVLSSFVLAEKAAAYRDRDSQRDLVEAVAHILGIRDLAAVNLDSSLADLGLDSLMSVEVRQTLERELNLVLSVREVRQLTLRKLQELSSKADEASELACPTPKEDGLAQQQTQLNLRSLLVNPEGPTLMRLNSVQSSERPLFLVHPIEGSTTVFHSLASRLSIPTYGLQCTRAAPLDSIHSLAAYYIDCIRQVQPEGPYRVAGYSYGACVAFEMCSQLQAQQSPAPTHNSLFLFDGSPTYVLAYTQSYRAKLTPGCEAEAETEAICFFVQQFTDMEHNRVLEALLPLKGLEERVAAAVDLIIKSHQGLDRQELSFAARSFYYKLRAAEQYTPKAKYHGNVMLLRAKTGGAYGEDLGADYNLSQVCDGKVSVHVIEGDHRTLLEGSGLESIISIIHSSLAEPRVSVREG

Fatty acid synthase [4] = target: T4, Fatty acid synthase; experiment: FAS thioesterase domain inhibitors, dose response, biochemical, kinetic fluorescence intensity (AID 624326); type: functional;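 further: rate of fluorescence rise from hydrolysis of a fluorogenic O-methyl fluorescein ester substrate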
[5] = target: T5, Heat shock factor protein 1 (Mus musculus, UniProt P38532); experiment: HSF1 potentiators in luciferase reporter cells, confirmation, cell-based, NIH3T3, luminescence, dose retest (AID 435004); type: functional;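 further: stress induced by proteasome inhibitor MG132 added 30 min after compound; luciferase reporter driven by HSF1 response element in NIH3T3 cells; actives raise luminescence as potentiators of the MG132 stress response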
T5 sequence (P38532 whole entry): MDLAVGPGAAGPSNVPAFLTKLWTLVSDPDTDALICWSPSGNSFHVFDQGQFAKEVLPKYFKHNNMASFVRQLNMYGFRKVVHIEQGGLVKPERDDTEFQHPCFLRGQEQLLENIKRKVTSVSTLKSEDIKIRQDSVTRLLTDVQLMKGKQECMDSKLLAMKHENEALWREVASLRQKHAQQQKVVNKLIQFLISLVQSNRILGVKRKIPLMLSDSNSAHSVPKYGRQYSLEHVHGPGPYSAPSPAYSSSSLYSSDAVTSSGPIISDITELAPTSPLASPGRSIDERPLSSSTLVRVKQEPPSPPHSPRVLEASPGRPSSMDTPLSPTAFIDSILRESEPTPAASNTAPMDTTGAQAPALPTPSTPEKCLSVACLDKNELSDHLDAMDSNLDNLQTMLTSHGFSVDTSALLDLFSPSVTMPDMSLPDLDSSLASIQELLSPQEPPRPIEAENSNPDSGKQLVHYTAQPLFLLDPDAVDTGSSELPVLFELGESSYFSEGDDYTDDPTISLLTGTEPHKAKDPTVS

[6] = system: Streptococcus sp. 'group A'; experiment: growth inhibition of control SK(-) GAS strain, dose response, counter-screen for streptokinase expression inhibitor project, luminescence, kanamycin, BacTiterGlo, confirmation (AID 1900); type: functional, organism-based
[7] = target: T6, Histone-lysine N-methyltransferase NSD2 (Homo sapiens, UniProt O96028); type: biochemical
T6 sequence (O96028 whole entry): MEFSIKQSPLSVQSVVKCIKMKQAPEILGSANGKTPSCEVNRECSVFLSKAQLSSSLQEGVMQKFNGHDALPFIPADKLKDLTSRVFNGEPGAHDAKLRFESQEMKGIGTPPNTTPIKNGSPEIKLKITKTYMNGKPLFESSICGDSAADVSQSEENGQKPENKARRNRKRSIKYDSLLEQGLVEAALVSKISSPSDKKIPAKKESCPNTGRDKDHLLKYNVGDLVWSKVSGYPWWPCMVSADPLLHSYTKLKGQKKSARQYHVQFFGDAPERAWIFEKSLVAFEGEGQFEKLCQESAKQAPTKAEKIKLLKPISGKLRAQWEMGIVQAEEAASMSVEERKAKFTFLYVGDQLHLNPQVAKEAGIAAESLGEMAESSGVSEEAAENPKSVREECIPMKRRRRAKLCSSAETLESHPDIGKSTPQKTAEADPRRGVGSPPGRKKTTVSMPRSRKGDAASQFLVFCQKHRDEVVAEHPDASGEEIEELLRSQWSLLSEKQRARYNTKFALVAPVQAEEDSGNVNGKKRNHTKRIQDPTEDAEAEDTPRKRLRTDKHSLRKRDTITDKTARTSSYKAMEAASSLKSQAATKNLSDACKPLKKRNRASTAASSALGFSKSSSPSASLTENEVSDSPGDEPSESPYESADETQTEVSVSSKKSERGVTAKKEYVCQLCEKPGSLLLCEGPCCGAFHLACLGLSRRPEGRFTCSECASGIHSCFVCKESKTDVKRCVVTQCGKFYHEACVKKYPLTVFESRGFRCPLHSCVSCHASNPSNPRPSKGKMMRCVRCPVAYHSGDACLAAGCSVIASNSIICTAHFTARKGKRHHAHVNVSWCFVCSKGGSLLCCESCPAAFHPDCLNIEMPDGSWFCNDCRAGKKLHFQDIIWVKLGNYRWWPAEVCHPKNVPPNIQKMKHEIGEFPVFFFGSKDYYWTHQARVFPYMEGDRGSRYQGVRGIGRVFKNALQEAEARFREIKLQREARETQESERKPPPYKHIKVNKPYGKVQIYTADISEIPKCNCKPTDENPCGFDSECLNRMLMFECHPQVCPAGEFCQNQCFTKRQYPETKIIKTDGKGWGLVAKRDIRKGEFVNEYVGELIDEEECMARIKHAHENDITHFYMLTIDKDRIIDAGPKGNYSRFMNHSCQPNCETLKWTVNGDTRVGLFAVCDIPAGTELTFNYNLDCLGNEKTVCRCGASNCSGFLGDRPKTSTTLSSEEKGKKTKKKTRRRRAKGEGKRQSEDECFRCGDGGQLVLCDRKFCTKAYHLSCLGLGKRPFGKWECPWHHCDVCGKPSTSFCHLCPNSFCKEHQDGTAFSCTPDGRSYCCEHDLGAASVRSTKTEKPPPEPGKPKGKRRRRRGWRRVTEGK

Streptokinase A = target: T7, Streptokinase A (Streptococcus pyogenes serotype M1, UniProt P10520); experiment: S. pyogenes streptokinase expression inhibitors, potency, dose response, plasminogen activation absorbance, OD405 (AID 1914); type: functional, Streptococcus pyogenes M1 GAS;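 further: secreted streptokinase activity via plasminogen activation per viability signal from cell pellet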
T7 sequence (P10520 whole entry): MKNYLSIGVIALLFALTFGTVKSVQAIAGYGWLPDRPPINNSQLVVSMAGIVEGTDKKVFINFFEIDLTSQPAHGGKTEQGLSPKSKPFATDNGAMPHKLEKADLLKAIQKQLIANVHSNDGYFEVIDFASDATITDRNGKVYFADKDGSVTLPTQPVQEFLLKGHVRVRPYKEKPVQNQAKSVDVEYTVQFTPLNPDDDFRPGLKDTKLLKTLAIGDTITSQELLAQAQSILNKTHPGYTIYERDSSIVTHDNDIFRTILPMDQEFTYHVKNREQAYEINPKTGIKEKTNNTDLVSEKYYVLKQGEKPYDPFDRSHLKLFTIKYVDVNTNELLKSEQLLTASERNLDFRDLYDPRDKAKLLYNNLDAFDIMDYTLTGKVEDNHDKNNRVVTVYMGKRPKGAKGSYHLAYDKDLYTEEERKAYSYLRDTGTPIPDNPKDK

Streptococcus = experiment: Group A Streptococcus viability loss, dose response, counter-screen for streptokinase expression inhibitor project, luminescence, BacTiterGlo (AID 1915); type: functional, organism-based;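 further: potency for reduction of bacterial viability or growth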
[8] = growth suppression of PTEN-null colon cells, dose response, cell-based, HCT116 PTEN knockout (AID 1047); type: functional;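 further: HCT116 colon tumor cells with PTEN knocked out; cells exposed to compound for 60 hours before readout; potency for loss of cell viability measured by luminescence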
[9] = growth suppression of beta-catenin-knockout colon cells, dose response, cell-based, HCT116, human colon tumor (AID 1045); type: functional;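 further: HCT116 colon tumor cells with beta catenin knocked out; cells exposed to compound for 60 hours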
[10] = inhibitors of clade B AD8 Env fusion, dose response, cell-based, cherry-pick (AID 652062); type: functional;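 further: luciferase signal from cell-cell fusion driven by HIV-1 clade B AD8 Env; potency is for inhibitors of fusion seen as a drop in luminescence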
[11] = LGR2 antagonists, dose response, cell-based, HEK293, CRE-luciferase reporter, cherry pick, set 2 (AID 743343); type: functional;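 further: transfected cells were stimulated with diluted bursicon conditioned medium after compound addition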
[12] = A549 cell cytotoxicity, dose response, cytotoxicity control, plate reader, cherry-pick, antagonist series (AID 743412); type: functional, cell-based
[13] = MC4R antagonists, dose response, counter-screen for LGR2 antagonist project, cell-based, plate reader, cherry pick (AID 743444); type: functional;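 further: transfected HEK 293 cells stimulated with alpha-MSH peptide; potency of inhibitors of the alpha-MSH evoked signal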
[14] = HepG2 cell cytotoxicity, dose response, cytotoxicity control, plate reader, cherry-pick, antagonist series (AID 743416); type: functional, cell-based
[15] = cytotoxicity toward NIH3T3 fibroblasts, dose response, counter-screen, cell-based, ATP luminescence, mouse fibroblasts (AID 2010); type: functional;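 further: cells exposed to compound for about 90 hours before reading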
[16] = inhibitors of intracellular T. cruzi replication, confirmation, NIH3T3 host cells, beta-gal luminescence (AID 2044); type: functional, cell-based;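 further: intracellular parasites grown in NIH/3T3 mouse fibroblasts as host cells; luminescent beta-galactosidase reporter signal from transgenic T. cruzi replicating inside host cells; inhibitors lower the luminescence signal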

## CCOC(=O)Cc1ccc(NS(=O)(=O)c2ccc(SC)cc2)cc1
Estrogen receptor
  IC50: > 50 µM (not active)

## CN(C)CCCNC(=O)C(=O)Nc1cc2c3c(c1)CC(=O)N3CCC2
[1]
  AC50: 15.4 µM (active)

## Cn1c(CN2CCCCC2)nc2cc(NS(=O)(=O)c3ccc(Cl)cc3)ccc21
Prothrombin
  IC50: 1.06 µM (active)
[2]
  EC50: > 53 µM (inactive)

## Cn1c(=O)c2cc(NC(=O)c3ccccc3Cl)c(=O)oc2n(C)c1=O
Prothrombin
  IC50: 0.321 µM (active)

## CCOc1ccc(C2CC(=O)N(Nc3ccc([N+](=O)[O-])cc3[N+](=O)[O-])C2=O)cc1 (centres undefined)
Prothrombin
  IC50: > 50 µM (not active)
Fatty acid synthase [3]
  IC50: 1.84 µM (active)
Fatty acid synthase [4]
  IC50: 1.44 µM (active)

## C/C(=N\Nc1ccc(Cl)c(C(=O)O)c1)c1cccc([N+](=O)[O-])c1
Prothrombin
  IC50: > 50 µM (not active)

## O=C(O)c1ccc(/C=N/NC(=O)c2ccc(F)cc2)cc1
Prothrombin
  IC50: > 50 µM (not active)

## COc1cc(/C=C2\SC(=O)N(CCN)C2=O)ccc1OS(=O)(=O)c1cc(C)ccc1C
[1]
  AC50: 5.08 µM (active)

## Cc1ccc(C(=O)n2cnnc2N)cc1
Prothrombin
  IC50: 4.05 µM (active)
[5]
  EC50: > 260 µM (inactive)

## CCOC(=O)C1=C(C)N=c2s/c(=C\c3ccc(O)c([N+](=O)[O-])c3)c(=O)n2C1c1ccccc1OC (centres undefined)
[6]
  EC50: 7.08 µM (active)
[7]
  AC50: > 20 µM (inactive)
Streptokinase A
  EC50: 20.4 µM (active)
Streptococcus
  EC50: 31.3 µM (active)

## Cc1ccc2nc(O)c(-c3nc4ccccn4c3NCc3ccco3)cc2c1
Estrogen receptor
  IC50: 25.7 µM (active)
[8]
  EC50: 18.7 µM (active)
[9]
  EC50: 28.4 µM (active)

## O=C(COC(=O)c1ncc(Cl)c(Cl)c1Cl)NCc1cccs1
[10]
  AC50: 1.12 µM (active)

## COc1ccc(S(=O)(=O)N(C)C[C@@H]2OCc3cnnn3CCCC(=O)N([C@@H](C)CO)C[C@H]2C)cc1
[11]
  AC50: 2.36 µM (active)
[12]
  AC50: > 52 µM (inactive)
[13]
  AC50: 1.75 µM (active)
[14]
  AC50: > 52 µM (inactive)

## COCCNC(=O)Cn1nc(C(F)(F)F)cc1C
Prothrombin
  IC50: > 50 µM (not active)

## Cc1cc(C)c2nc(N(CCCN(C)C)C(=O)c3ccc4c(c3)CCCC4)sc2c1
[15]
  EC50: 4.48 µM (active)
[1]
  AC50: 13.4 µM (active)
[16]
  EC50: 0.727 µM (active)
